Tested on: L1210 cells
Experiment: animal or person
Format: in vivo, CDF1 mice
Settings: for Antitumor Activity (T/C, prolongation rate of survival day): once daily for 10 days; for response vs control in vivo at 0.625 mg/kg / response vs control in vivo at 1.25 mg/kg / response vs control in vivo at 5 mg/kg / response vs control in vivo at 0.15 mg/kg / response vs control in vivo at 0.31 mg/kg / response vs control in vivo at 2.5 mg/kg: Mus musculus, L1210, ip, 1080 h; for response vs control in vivo at 0.625 mg/kg: read-out: Antitumor Activity (T/C, prolongation rate of survival day), 0.625 mg/kg/day i.p., once daily for 10 days; for response vs control in vivo at 1.25 mg/kg: read-out: Antitumor Activity (T/C, prolongation rate of survival day), 1.25 mg/kg/day i.p., once daily for 10 days; for response vs control in vivo at 5 mg/kg: read-out: Antitumor Activity (T/C, prolongation rate of survival day), 5 mg/kg/day i.p., once daily for 10 days; for response vs control in vivo at 0.15 mg/kg: read-out: Antitumor Activity (T/C, prolongation rate of survival day), 0.15 mg/kg/day i.p., once daily for 10 days; for response vs control in vivo at 0.31 mg/kg: read-out: Antitumor Activity (T/C, prolongation rate of survival day), 0.31 mg/kg/day i.p., once daily for 10 days; for response vs control in vivo at 2.5 mg/kg: read-out: Antitumor Activity (T/C, prolongation rate of survival day), 2.5 mg/kg/day i.p., once daily for 10 days
Procedure: D. Representative compounds of general formula I" were tested against experimental animal tumors as follows: […]
CDF1 mice were administered intraperitoneally (i.p.) with 1×10^5 cells/mouse of L1210 cells. After 24 hours had elapsed since inoculation, the mice were administered the test compounds intraperitoneally once daily for 10 consecutive days and observed for a 45 day period.
The antitumor activity was shown by the prolongation rate of survival day (T/C, %) to the survival day of control mice injected with physiological saline.

| SMILES | Antitumor Activity (T/C, prolongation rate of survival day) (0.31 mg/kg/day i.p.) | Antitumor Activity (T/C, prolongation rate of survival day) (2.5 mg/kg/day i.p.) | response vs control in vivo at 0.625 mg/kg | response vs control in vivo at 1.25 mg/kg | response vs control in vivo at 5 mg/kg | Antitumor Activity (T/C, prolongation rate of survival day) (0.625 mg/kg/day i.p.) | Antitumor Activity (T/C, prolongation rate of survival day) (1.25 mg/kg/day i.p.) | Antitumor Activity (T/C, prolongation rate of survival day) (5 mg/kg/day i.p.) | Antitumor Activity (T/C, prolongation rate of survival day) (0.15 mg/kg/day i.p.) | response vs control in vivo at 0.15 mg/kg | response vs control in vivo at 0.31 mg/kg | response vs control in vivo at 2.5 mg/kg |
| --- | --- | --- | --- | --- | --- | --- | --- | --- | --- | --- | --- | --- |
| COc1cccc2c1C(=O)c1c(O)c3c(c(O)c1C2=O)C[C@@](O)(C(=O)COC(C)=O)C[C@@H]3O[C@H]1C[C@H](N)[C@H](OC2CCCCO2)[C@H](C)O1 (single isomer, unassigned) [Example 1-a, 14-O-acetyl-4'-O-tetrahydropyranyl adriamycin a] | 203% | 239% | 195% | 228% | 225% |  |  |  |  |  |  |  |
| COc1cccc2c1C(=O)c1c(O)c3c(c(O)c1C2=O)C[C@@](O)(C(=O)COC(C)=O)C[C@@H]3O[C@H]1C[C@H](N)[C@H](OC2CCCCO2)[C@H](C)O1 (single isomer, unassigned) [Example 1-b, 14-O-acetyl-4'-O-tetrahydropyranyl adriamycin b] | 145% | 218% |  |  |  | 184% | 220% | 241% |  |  |  |  |
| COc1cccc2c1C(=O)c1c(O)c3c(c(O)c1C2=O)C[C@@](O)(C(=O)CO)C[C@@H]3O[C@H]1C[C@H](N)[C@H](OC2CCCO2)[C@H](C)O1 (single isomer, unassigned) [Example 5-a, 4'-O-tetrahydrofuranyl adriamycin a] | 115% | 288% |  |  |  | 135% | 189% | 212% | 115% |  |  |  |
| COc1cccc2c1C(=O)c1c(O)c3c(c(O)c1C2=O)C[C@@](O)(C(=O)CO)C[C@@H]3O[C@H]1C[C@H](N)[C@H](OC2CCCO2)[C@H](C)O1 (single isomer, unassigned) [Example 5-b, 4'-O-tetrahydrofuranyl adriamycin b] | 128% | 230% |  |  |  | 141% | 154% | 256% | 122% |  |  |  |
| CCOC(C)O[C@@H]1[C@H](C)O[C@@H](O[C@H]2C[C@](O)(C(=O)CO)Cc3c(O)c4c(c(O)c32)C(=O)c2c(OC)cccc2C4=O)C[C@@H]1N (single isomer, unassigned) [Example 7-a, 4'-O-(1-ethyloxyethyl) adriamycin a] |  | 277% | 127% | 145% |  |  |  | 108% |  | 96% | 101% |  |
| CCOC(C)O[C@@H]1[C@H](C)O[C@@H](O[C@H]2C[C@](O)(C(=O)CO)Cc3c(O)c4c(c(O)c32)C(=O)c2c(OC)cccc2C4=O)C[C@@H]1N (single isomer, unassigned) [Example 7-b, 4'-O-(1-ethyloxyethyl) adriamycin b] | 108% | 151% |  |  |  | 127% | 157% | 211% | 108% |  |  |  |
| CCCCOC(C)O[C@@H]1[C@H](C)O[C@@H](O[C@H]2C[C@](O)(C(=O)CO)Cc3c(O)c4c(c(O)c32)C(=O)c2c(OC)cccc2C4=O)C[C@@H]1N (single isomer, unassigned) [Example 8-a, 4'-O-(1-butyloxyethyl) adriamycin a] |  |  | 119% | 125% |  |  |  | 163% |  | 100% | 100% | 138% |
| CCCCOC(C)O[C@@H]1[C@H](C)O[C@@H](O[C@H]2C[C@](O)(C(=O)CO)Cc3c(O)c4c(c(O)c32)C(=O)c2c(OC)cccc2C4=O)C[C@@H]1N (single isomer, unassigned) [Example 8-b, 4'-O-(1-butyloxyethyl) adriamycin b] | 100% | 138% |  |  |  | 106% | 119% | 288% | 100% |  |  |  |
| COc1cccc2c1C(=O)c1c(O)c3c(c(O)c1C2=O)C[C@@](O)(C(=O)CO)C[C@@H]3O[C@H]1C[C@H](N)[C@H](OC(C)OCC(C)C)[C@H](C)O1 (single isomer, unassigned) [Example 9-a, 4'-O-(1-isobutyloxyethyl) adriamycin a] |  |  | 112% | 125% |  |  |  | 257% |  | 105% | 105% | 151% |
| COc1cccc2c1C(=O)c1c(O)c3c(c(O)c1C2=O)C[C@@](O)(C(=O)CO)C[C@@H]3O[C@H]1C[C@H](N)[C@H](OC(C)OCC(C)C)[C@H](C)O1 (single isomer, unassigned) [Example 9-b, 4'-O-(1-isobutyloxyethyl) adriamycin b] | 118% | 158% |  |  |  | 105% | 118% | 303% | 99% |  |  |  |
| COc1cccc2c1C(=O)c1c(O)c3c(c(O)c1C2=O)C[C@@](O)(C(=O)CO)C[C@@H]3O[C@H]1C[C@H](N)[C@H](OC(C)OCCCCCC(C)C)[C@H](C)O1 (single isomer, unassigned) [Example 10-a, 4'-O-(1-(6-methylheptyloxy)ethyl) adriamycin a] |  |  | 99% | 118% | 125% |  |  |  |  | 105% | 92% | 125% |
| COc1cccc2c1C(=O)c1c(O)c3c(c(O)c1C2=O)C[C@@](O)(C(=O)CO)C[C@@H]3O[C@H]1C[C@H](N)[C@H](OC(C)OCCCCCC(C)C)[C@H](C)O1 (single isomer, unassigned) [Example 10-b, 4'-O-(1-(6-methylheptyloxy)ethyl) adriamycin b] | 105% | 105% |  |  |  | 112% | 112% | 118% | 105% |  |  |  |
| COc1cccc2c1C(=O)c1c(O)c3c(c(O)c1C2=O)C[C@@](O)(C(=O)CO)C[C@@H]3O[C@H]1C[C@H](N)[C@H](OC(C)OC2CCCCC2)[C@H](C)O1 (single isomer, unassigned) [Example 11-a, 4'-O-(1-cyclohexyloxyethyl) adriamycin a] |  |  | 105% | 118% |  |  |  | 184% |  | 105% | 99% | 125% |
| COc1cccc2c1C(=O)c1c(O)c3c(c(O)c1C2=O)C[C@@](O)(C(=O)CO)C[C@@H]3O[C@H]1C[C@H](N)[C@H](OC(C)OC2CCCCC2)[C@H](C)O1 (single isomer, unassigned) [Example 11-b, 4'-O-(1-cyclohexyloxyethyl) adriamycin b] | 105% | 125% |  |  |  | 105% | 105% | 145% | 105% |  |  |  |
| COc1cccc2c1C(=O)c1c(O)c3c(c(O)c1C2=O)C[C@@](O)(C(C)=O)C[C@@H]3O[C@H]1C[C@H](N)[C@H](OC2CCCC(OC)O2)[C@H](C)O1 (single isomer, unassigned) [Example 14-a, 4'-O-(6-methoxytetrahydropyranyl) daunomycin a] |  |  | 100% | 106% |  |  |  | 232% |  | 100% | 100% | 125% |
| COc1cccc2c1C(=O)c1c(O)c3c(c(O)c1C2=O)C[C@@](O)(C(C)=O)C[C@@H]3O[C@H]1C[C@H](N)[C@H](OC2CCCC(OC)O2)[C@H](C)O1 (single isomer, unassigned) [Example 14-b, 4'-O-(6-methoxytetrahydropyranyl) daunomycin b] | 100% | 131% |  |  |  | 106% | 113% | 463% | 94% |  |  |  |

Source: patent publication US4303785A, “Antitumor anthracycline antibiotics” (priority 1978, dated 1981)
